# Experiments:
# [1] = tested on: U251 cells; assay: MIT assay, radiosensitizing effects of NS-160; format: cell-based, human; conditions: U251, 8 hour pretreatment, 0.2 μM, IR dose of 4 Gy
# Procedure: The dose-dependent radiosensitizing effects of NS-160 were investigated using an 8 hour pretreatment of 0.02 μM, 0.2 μM, and 2.0 μM NS-160 in U251 cells (FIG. 9). […] Therefore, NS-160 can act as a true radiosensitizer at low μM concentrations.
# [2] = tested on: zebrafish (ZF) embryos; assay: Zebrafish embryo development and survival after drug plus IR; format: in vivo, Danio rerio
# Procedure: ZF were raised in accordance with previously established protocols (McAleer, et al., 2005, J. Radiat. Oncol. Biol. Phys. 61:10-3) at the University of Pennsylvania School of Medicine. Embryos were maintained at 30° C. after transplantation procedures. The age of embryos is indicated as the hours post-fertilization (hpf) and days post-fertilization (dpf) for all experimental data shown. […] Radiat. Oncol. Biol. Phys. 61:10-3) immediately after photography at 24 hpf. […]
# The radiosensitizing effects of NS-123 on human cancer cells but not normal cells prompted us to examine the potential of NS-123 in vivo. Zebra fish (ZF) (Danio rerio) embryos provide an unique vertebrate model that is ideal for the screening of therapeutic agents because of their close genetic and physiological homology to upper level vertebrates such as mammals, their rapid embryonic development, optical clarity, and suitability for investigations regarding the effects of radiation and radiosensitizers (Geiger et al., 2006, Cancer Res. 66:8172-8181; McAleer et al., 2005, Int. J. Radiat. Oncol. Biol. Phys. 61:10-13). These features allow the efficient screening of novel drugs and observation of effects on specific organs without the need for euthanization and necroscopy. The ZF embryos were pretreated for 8 hours with 5 μM NS-123 prior to 6 Gy of radiation.
SMILES,radiosensitization [1],embryonic development and viability after IR ([2]; 5 μM NS-123 (1 μM staurosporine) 8 hours before 6 Gy),morphologic effects in developing ZF with IR ([2]; drug + IR)
"N#Cc1ccc(Br)c([N+](=O)[O-])c1 [NS-160, 4-bromo-3-nitrobenzonitrile]",Radiosensitization was evident,–,–
CN[C@@H]1C[C@H]2O[C@@](C)([C@@H]1OC)n1c3ccccc3c3c4c(c5c6ccccc6n2c5c31)C(=O)NC4 [Staurosporine],–,greatly diminished the viability and development,morphologic changes consistent with increased toxicity

# — patent US8541476B2, “Compounds for treatment of malignant tumors” (The Trustees of the University of Pennsylvania, priority 2007, dated 2013)
